The results in this text go back to patent US4393225A, “AI-77 Compounds and pharmaceutically acceptable salts thereof” (Asahi Kasei Kogyo Kabushiki Kaisha, priority 1979, dated 1983).

Read-outs that look alike come from different tables or passages of the source.

The subject of the assay is ulcer. Kind of assay: Anti-ulcer test (restraint and water immersion ulcer in rats, i.p.). The assay is classed as in vivo, Male Wistar rats. Particulars: Rattus norvegicus, ip, read-out: % Inhibition of Ulcer; for inhibition in vivo at 25 mg/kg: 25 mg/kg i.p. Put shortly: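 Male Wistar rats (~150 g), fasted 24 h, dosed i.p. with compound in physiological saline; 1 h later restrained and immersed to xiphisternum in 21 °C water for 6 h. Stomachs examined microscopically, ulcers scored 0–3, and percent inhibition calculated.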

`CCC(=O)Oc1cccc2c1C(=O)OC(C(CC(C)C)NC(=O)C(OC)C1OC(=O)CC1N)C2` (stereo not drawn) [IIIa-17-5]: the inhibition in vivo at 50 mg/kg (50 mg/kg i.p.) is 44%.

For `CC(C)CC(NC(=O)C(O)C1C=CC(=O)O1)C1Cc2cccc(OCCc3ccccc3)c2C(=O)O1` (stereo not drawn) [IVa-4-12], the inhibition in vivo at 50 mg/kg (50 mg/kg i.p.) was 44%.

As to `CCC(=O)OC(C(=O)NC(CC(C)C)C1Cc2cccc(O)c2C(=O)O1)C1OC(=O)CC1NC(=O)C(Cl)(Cl)Cl` (stereo not drawn) [IIIa-2-12], the inhibition in vivo at 50 mg/kg (50 mg/kg i.p.) was 44%. On the same count and under the same terms, the result for `CC(C)CC(NC(=O)C(O)C1C=CC(=O)O1)C1Cc2cccc(OC(=O)C(Cl)(Cl)Cl)c2C(=O)O1` (stereo not drawn) [IVa-3-13] reads 44%. For `CCOc1cccc2c1C(=O)OC(C(CC(C)C)NC(=O)C(OC(C)=O)C1OC(=O)CC1NC(=O)c1ccc(OCCC(C)C)cc1)C2` (stereo not drawn) [IIIa-6-9], the inhibition in vivo at 50 mg/kg (50 mg/kg i.p.) came to 22%. Consider `CCOc1cccc2c1C(=O)OC(C(CC(C)C)NC(=O)C(OC(C)=O)C(O)C(CC(N)=O)NC)C2` (stereo not drawn) [VII-24-1], for which the inhibition in vivo at 25 mg/kg was 66%. `CCOC(C(=N)NC(CC(C)C)C1Cc2cccc(O)c2C(=O)O1)C(O)C(N)CC(=O)O` (stereo not drawn) [Vb-8-3]: under “50 mg/kg i.p.”, the inhibition in vivo at 50 mg/kg came to 78%.

As for `CC(C)CCCC(C)CCCC(C)CCCCNC(=O)CC(N)C(O)C(O)C(=O)NC(CC(C)C)C1Cc2cccc(O)c2C(=O)O1` (stereo not drawn) [VII-1-36], the inhibition in vivo at 25 mg/kg came out at 83%. With `CCOc1cccc2c1C(=O)OC(C(CC(C)C)NC(=N)C(O)C(O)C(CC(=O)O)NC)C2` (stereo not drawn) [Vb-23-1], the inhibition in vivo at 50 mg/kg (50 mg/kg i.p.) came out at 89%. In the case of `CCCC(=O)NC1CC(=O)OC1C(OC(=O)CCC)C(=O)NC(CC(C)C)C1Cc2cccc(OCc3ccco3)c2C(=O)O1` (stereo not drawn) [IIIa-6-11], the inhibition in vivo at 50 mg/kg (50 mg/kg i.p.) came to 33%.

For `CCCC(=O)NC1CC(=O)OC1C(OC(C)C)C(=O)NC(CC(C)C)C1Cc2cccc(OCC3CCCCC3)c2C(=O)O1` (stereo not drawn) [IIIa-7-12], the inhibition in vivo at 50 mg/kg (50 mg/kg i.p.) came out at 33%. With `CCC(=O)OC(C(=O)NC(CC(C)C)C1Cc2cccc(OC)c2C(=O)O1)C(O)C(CC(N)=O)NC(C)=O` (stereo not drawn) [VII-33-1], the inhibition in vivo at 25 mg/kg worked out at 66%.

Regarding `CC(=O)NC1CC(=O)OC1C(O)C(=O)NC(CC(C)C)C1Cc2cccc(OCC(C)C)c2C(=O)O1` (stereo not drawn) [IIIa-5-10], where the note is “50 mg/kg i.p.”, the inhibition in vivo at 50 mg/kg amounted to 44%. Turning to `CCCCCC(=O)NC1CC(=O)OC1C(O)C(=O)NC(CC(C)C)C1Cc2cccc(O)c2C(=O)O1` (stereo not drawn) [IIIa-1-7], the inhibition in vivo at 50 mg/kg (50 mg/kg i.p.) was 66%. Take `CCOC(=O)CCC(=O)NC1CC(=O)OC1C(O)C(=O)NC(CC(C)C)C1Cc2cccc(OCC)c2C(=O)O1` (stereo not drawn) [IIIa-5-36]: the inhibition in vivo at 50 mg/kg (50 mg/kg i.p.) was determined as 44%. For `CCCCCCCCCCCCCCCCCCOc1cccc2c1C(=O)OC(C(CC(C)C)NC(=O)C(O)C1OC(=O)CC1N)C2` (stereo not drawn) [IIIa-13-5], the inhibition in vivo at 50 mg/kg (50 mg/kg i.p.) came out at 72%. `CCCCCC(=O)OC(C)CC(=O)NC1CC(=O)OC1C(O)C(=O)NC(CC(C)C)C1Cc2cccc(O)c2C(=O)O1` (stereo not drawn) [IIIa-1-49]: the inhibition in vivo at 50 mg/kg (50 mg/kg i.p.) came out at 56%. Consider `CCCCN=C(NC(CC(C)C)C1Cc2cccc(OCC)c2C(=O)O1)C(O)C(O)C(N)CC(=O)O` (stereo not drawn) [Vb-5-2], for which, where the note is “50 mg/kg i.p.”, the inhibition in vivo at 50 mg/kg was determined as 89%. For the compound `COc1cccc2c1C(=O)OC(C(CC(C)C)NC(=O)C(O)C(O)C(N)CC(N)=O)C2` (stereo not drawn) [VII-5-1], the inhibition in vivo at 25 mg/kg was found to be 78%.

For `CC(C)CC(=O)NC1CC(=O)OC1C(O)C(=O)NC(CC(C)C)C1Cc2cccc(O)c2C(=O)O1` (stereo not drawn) [IIIa-1-5], the inhibition in vivo at 50 mg/kg is 66%.

In the case of `CCCCCCC(=O)Oc1cccc2c1C(=O)OC(C(CC(C)C)NC(=O)C(O)C1C=CC(=O)O1)C2` (stereo not drawn) [IVa-3-6], the inhibition in vivo at 50 mg/kg (50 mg/kg i.p.) is 33%. In the case of `CCCCNC1CC(=O)OC1C(O)C(=O)NC(CC(C)C)C1Cc2cccc(OCCCC)c2C(=O)O1` (stereo not drawn) [IIIa-22-76], the inhibition in vivo at 50 mg/kg (50 mg/kg i.p.) is 94%.

For `CC(=O)OC(C(=O)NC(CC(C)C)C1Cc2cccc(O)c2C(=O)O1)C1OC(=O)CC1NC(=O)CC(C)C` (stereo not drawn) [IIIa-2-3], the inhibition in vivo at 50 mg/kg (50 mg/kg i.p.) was determined as 44%. Consider `CC(C)CC(NC(=O)C(O)C(O)C=CC(=O)NCc1cccc(Cl)c1)C1Cc2cccc(O)c2C(=O)O1` (stereo not drawn) [VIII-1-4], for which the inhibition in vivo at 50 mg/kg (50 mg/kg i.p.) was 44%. For the compound `CNC1CC(=O)OC1C(O)C(=O)NC(CC(C)C)C1Cc2cccc(OCCC(C)C)c2C(=O)O1` (stereo not drawn) [IIIa-31-4], the inhibition in vivo at 50 mg/kg (50 mg/kg i.p.) came out at 89%.

In the case of `CCNC1CC(=O)OC1C(OC)C(=O)NC(CC(C)C)C1Cc2cccc(OC(=O)C(C)C)c2C(=O)O1` (stereo not drawn) [IIIa-26-9], for the setting “50 mg/kg i.p.”, the inhibition in vivo at 50 mg/kg is 56%. Turning to `CCOc1cccc2c1C(=O)OC(C(CC(C)C)NC(=O)C(O)C1OC(=O)CC1NC(=O)c1nnnn1C)C2` (stereo not drawn) [IIIa-5-27], under “50 mg/kg i.p.”, the inhibition in vivo at 50 mg/kg amounted to 44%. The same measure, in the same setting: the result for `CCCCCCCCCCCCCCCCCC(=O)NC1CC(=O)OC1C(OC(C)=O)C(=O)NC(CC(C)C)C1Cc2cccc(OCC)c2C(=O)O1` (stereo not drawn) [IIIa-6-4] reads 22%; that for `CC(=O)OC(C(=O)NC(CC(C)C)C1Cc2cccc(O)c2C(=O)O1)C1OC(=O)CC1NC(=O)c1ccc(C)cc1` (stereo not drawn) [IIIa-2-8], 44%. As for `CCCCCSc1ccc(C(=O)NC2CC(=O)OC2C(O)C(=O)NC(CC(C)C)C2Cc3cccc(OCC)c3C(=O)O2)cc1` (stereo not drawn) [IIIa-5-46], the inhibition in vivo at 50 mg/kg (50 mg/kg i.p.) was 33%.
